Test results taken from patent US11807835B2, “Detergent compositions containing a stabilized enzyme by phosphonates” (ECOLAB USA INC., priority 2016, dated 2023).

Tests used:
Format in all cases: biochemical
[1] = test system: enzyme (protease, amylase, lipase); assay: Overall effects of phosphonates on enzyme activity (Table 3); conditions: overall effect of the phosphonate on enzyme activity in the detergent use solution
Summary of the method: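 Protease, amylase and lipase activity in detergent use solutions with varied phosphonate levels, 4000 ppm in 5 GPG water at 120° F., sampled up to 4 h and frozen at −80° C. before assay. Activity given as % retention relative to t=0 (100%).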

[2] = test system: lipase; assay: Lipase activity retention in detergent use solution (4000 ppm, 5 GPG water; p-nitrophenyl valerate, TRIS buffer pH 8.0); conditions: base formula
Summary of the method: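 Lipase stability was measured in a detergent use solution under conditions mimicking presoak or manual warewash, with stirring in a water bath. Aliquots were taken over time and flash-frozen. Thawed samples were diluted in TRIS buffer at pH 8.0 and assayed with p-nitrophenyl valerate as substrate on a plate reader. Activity is reported as % retained relative to the time=0 sample.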

[3] = test system: protease; assay: Protease activity retention in detergent use solution (4000 ppm, 5 GPG water; peptidyl substrate, glycine buffer pH 9.0); conditions: base formula; for Relative Protease Enzyme Activity: use solution at 120° F.
Summary of the method: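 Detergent use solutions at 4000 ppm in 5 GPG water were held at 120° F with stirring and sampled up to 4 h, with aliquots flash-frozen. Activity was read on a peptidyl substrate in glycine buffer pH 9.0 by absorbance against a calibration curve. Retention is % activity relative to the t=0 sample.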

Q: How did the “Stability (effects on enzyme activity)” value [1] turn out when `NCP(=O)(O)O` [AMPA, Aminomethyl phosphonic acid] was run?
A: Yes

Q: What about the “Relative Lipase Enzyme Activity” value ([2]; phosphonate 0.6 wt-%, use solution at 120º F., time 0 min) of the same molecule?
A: 100.00%

Q: And the “Relative Lipase Enzyme Activity” value ([2]; phosphonate 0.6 wt-%, use solution at 120º F., time 5 min)?
A: 80.17%

Q: And the “Relative Lipase Enzyme Activity” value ([2]; phosphonate 0.6 wt-%, use solution at 120º F., time 10 min)?
A: 64.48%

Q: What about the “Relative Lipase Enzyme Activity” value ([2]; phosphonate 0.6 wt-%, use solution at 120º F., time 20 min) of the same molecule?
A: 49.45%

Q: What about the “Relative Lipase Enzyme Activity” value ([2]; phosphonate 0.6 wt-%, use solution at 120º F., time 40 min) of the same molecule?
A: 37.77%

Q: And the “Relative Lipase Enzyme Activity” value ([2]; phosphonate 0.6 wt-%, use solution at 120º F., time 60 min)?
A: 26.82%

Q: What about the “Relative Lipase Enzyme Activity” value ([2]; phosphonate 0.6 wt-%, use solution at 120º F., time 90 min) of the same molecule?
A: 19.59%

Q: What about the “Relative Lipase Enzyme Activity” value ([2]; phosphonate 0.6 wt-%, use solution at 120º F., time 120 min) of the same molecule?
A: 15.84%

Q: What about the “Relative Lipase Enzyme Activity” value ([2]; phosphonate 0.6 wt-%, use solution at 120º F., time 150 min) of the same molecule?
A: 15.01%

Q: What about the “Relative Lipase Enzyme Activity” value ([2]; phosphonate 0.6 wt-%, use solution at 120º F., time 180 min) of the same molecule?
A: 13.23%

Q: And the “Relative Lipase Enzyme Activity” value ([2]; phosphonate 0.6 wt-%, use solution at 120º F., time 210 min)?
A: 12.05%

Q: And the “Relative Lipase Enzyme Activity” value ([2]; phosphonate 0.6 wt-%, use solution at 120º F., time 240 min)?
A: 11.16%

Q: What about the “Relative Lipase Enzyme Activity” value ([2]; phosphonate at 0.1% elemental phosphorus, at 120º F. or at room temperature (as titled), time 0 min) of the same molecule?
A: 100.00%

Q: What about the “Relative Lipase Enzyme Activity” value ([2]; phosphonate at 0.1% elemental phosphorus, at 120º F. or at room temperature (as titled), time 5 min) of the same molecule?
A: 79.03%

Q: What about the “Relative Lipase Enzyme Activity” value ([2]; phosphonate at 0.1% elemental phosphorus, at 120º F. or at room temperature (as titled), time 10 min) of the same molecule?
A: 77.51%

Q: And the “Relative Lipase Enzyme Activity” value ([2]; phosphonate at 0.1% elemental phosphorus, at 120º F. or at room temperature (as titled), time 20 min)?
A: 62.55%

Q: And the “Relative Lipase Enzyme Activity” value ([2]; phosphonate at 0.1% elemental phosphorus, at 120º F. or at room temperature (as titled), time 40 min)?
A: 53.26%

Q: And the “Relative Lipase Enzyme Activity” value ([2]; phosphonate at 0.1% elemental phosphorus, at 120º F. or at room temperature (as titled), time 60 min)?
A: 44.19%

Q: What about the “Relative Lipase Enzyme Activity” value ([2]; phosphonate at 0.1% elemental phosphorus, at 120º F. or at room temperature (as titled), time 90 min) of the same molecule?
A: 33.99%

Q: What about the “Relative Lipase Enzyme Activity” value ([2]; phosphonate at 0.1% elemental phosphorus, at 120º F. or at room temperature (as titled), time 120 min) of the same molecule?
A: 28.67%

Q: What about the “Relative Lipase Enzyme Activity” value ([2]; phosphonate at 0.1% elemental phosphorus, at 120º F. or at room temperature (as titled), time 150 min) of the same molecule?
A: 23.85%

Q: And the “Relative Lipase Enzyme Activity” value ([2]; phosphonate at 0.1% elemental phosphorus, at 120º F. or at room temperature (as titled), time 180 min)?
A: 16.98%

Q: And the “Relative Lipase Enzyme Activity” value ([2]; phosphonate at 0.1% elemental phosphorus, at 120º F. or at room temperature (as titled), time 210 min)?
A: 17.74%

Q: And the “Relative Lipase Enzyme Activity” value ([2]; phosphonate at 0.1% elemental phosphorus, at 120º F. or at room temperature (as titled), time 240 min)?
A: 16.10%

Q: And the protease stability ([3]; compared with ATMP, DGAP, PAPEMP, MEAP)?
A: improves protease stability, but to a lesser extent

Q: What about the “Relative Protease Enzyme Activity” value ([3]; phosphonate 0.3 wt-%, lower half of Table 4A, time 5) of the same molecule?
A: 86.30%

Q: And the “Relative Protease Enzyme Activity” value ([3]; phosphonate 0.3 wt-%, lower half of Table 4A, time 20)?
A: 63.30%

Q: And the “Relative Protease Enzyme Activity” value ([3]; phosphonate 0.3 wt-%, lower half of Table 4A, time 90)?
A: 37.90%

Q: What about the “Relative Protease Enzyme Activity” value ([3]; phosphonate 0.3 wt-%, lower half of Table 4A, time 120) of the same molecule?
A: 31.17%

Q: And the “Relative Protease Enzyme Activity” value ([3]; phosphonate 0.3 wt-%, lower half of Table 4A, time 150, unit not given)?
A: 28.70%

Q: What about the “Relative Protease Enzyme Activity” value ([3]; phosphonate 0.3 wt-%, lower half of Table 4A, time 210) of the same molecule?
A: 22.72%

Q: What about the “Relative Protease Enzyme Activity” value ([3]; phosphonate 0.3 wt-%, lower half of Table 4A, time '0') of the same molecule?
A: 100.00%

Q: And the “Relative Protease Enzyme Activity” value ([3]; phosphonate 0.3 wt-%, lower half of Table 4A, time '40')?
A: 51.37%

Q: And the “Relative Protease Enzyme Activity” value ([3]; phosphonate 0.3 wt-%, lower half of Table 4A, time 'Blank')?
A: 85.83%

Q: And the “Relative Protease Enzyme Activity” value ([3]; phosphonate 0.3 wt-%, lower half of Table 4A, time row printed '10')?
A: 78.58%

Q: What about the “Relative Protease Enzyme Activity” value ([3]; phosphonate 0.3 wt-%, lower half of Table 4A, time row printed '60') of the same molecule?
A: 44.31%

Q: And the “Relative Protease Enzyme Activity” value ([3]; phosphonate 0.3 wt-%, lower half of Table 4A, time row printed '180')?
A: 25.64%

Q: And the “Relative Protease Enzyme Activity” value ([3]; phosphonate 0.6 wt-%, time 0 min)?
A: 100.00%

Q: And the “Relative Protease Enzyme Activity” value ([3]; phosphonate 0.6 wt-%, time 5 min)?
A: 109.27%

Q: And the “Relative Protease Enzyme Activity” value ([3]; phosphonate 0.6 wt-%, time 10 min)?
A: 94.52%

Q: What about the “Relative Protease Enzyme Activity” value ([3]; phosphonate 0.6 wt-%, time 20 min) of the same molecule?
A: 84.97%

Q: What about the “Relative Protease Enzyme Activity” value ([3]; phosphonate 0.6 wt-%, time 40 min) of the same molecule?
A: 77.92%

Q: What about the “Relative Protease Enzyme Activity” value ([3]; phosphonate 0.6 wt-%, time 60 min) of the same molecule?
A: 75.86%

Q: And the “Relative Protease Enzyme Activity” value ([3]; phosphonate 0.6 wt-%, time 90 min)?
A: 62.50%

Q: What about the “Relative Protease Enzyme Activity” value ([3]; phosphonate 0.6 wt-%, time 120 min) of the same molecule?
A: 54.43%

Q: And the “Relative Protease Enzyme Activity” value ([3]; phosphonate 0.6 wt-%, time 150 min)?
A: 51.19%

Q: And the “Relative Protease Enzyme Activity” value ([3]; phosphonate 0.6 wt-%, time 180 min)?
A: 47.47%

Q: What about the “Relative Protease Enzyme Activity” value ([3]; phosphonate 0.6 wt-%, time 210 min) of the same molecule?
A: 43.42%

Q: And the “Relative Protease Enzyme Activity” value ([3]; phosphonate 0.6 wt-%, time 240 min)?
A: 40.00%

Q: What about the “Relative Protease Enzyme Activity” value ([3]; phosphonate at 0.1% elemental phosphorus, time 0 min) of the same molecule?
A: 107.11%

Q: What about the “Relative Protease Enzyme Activity” value ([3]; phosphonate at 0.1% elemental phosphorus, time 5 min) of the same molecule?
A: 100.00%

Q: What about the “Relative Protease Enzyme Activity” value ([3]; phosphonate at 0.1% elemental phosphorus, time 10 min) of the same molecule?
A: 99.75%

Q: And the “Relative Protease Enzyme Activity” value ([3]; phosphonate at 0.1% elemental phosphorus, time 20 min)?
A: 84.62%

Q: What about the “Relative Protease Enzyme Activity” value ([3]; phosphonate at 0.1% elemental phosphorus, time 40 min) of the same molecule?
A: 70.58%

Q: And the “Relative Protease Enzyme Activity” value ([3]; phosphonate at 0.1% elemental phosphorus, time 60 min)?
A: 62.19%

Q: What about the “Relative Protease Enzyme Activity” value ([3]; phosphonate at 0.1% elemental phosphorus, time 90 min) of the same molecule?
A: 49.17%

Q: What about the “Relative Protease Enzyme Activity” value ([3]; phosphonate at 0.1% elemental phosphorus, time 120 min) of the same molecule?
A: 43.34%

Q: And the “Relative Protease Enzyme Activity” value ([3]; phosphonate at 0.1% elemental phosphorus, time 150 min)?
A: 38.26%

Q: What about the “Relative Protease Enzyme Activity” value ([3]; phosphonate at 0.1% elemental phosphorus, time 180 min) of the same molecule?
A: 34.55%

Q: What about the “Relative Protease Enzyme Activity” value ([3]; phosphonate at 0.1% elemental phosphorus, time 210 min) of the same molecule?
A: 32.27%

Q: What about the “Relative Protease Enzyme Activity” value ([3]; phosphonate at 0.1% elemental phosphorus, time 240 min) of the same molecule?
A: 28.25%
